Values joined by “and” are separate entries in the source; they are usually repeats but may differ in a detail not shown here. Equal entries are not always repeated. Toxic doses and inconclusive results are not listed.
System: L1210 leukemia ip in BDF1 mice, survival T/C
Assay: NCI In Vivo Anticancer Drug Screen. Data for tumor model L1210 Leukemia (intraperitoneal) in B6D2F1 (BDF1) mice
Settings: higher = longer survival
Outline: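 Transplanted-tumor mice were given test agent; controls received vehicle only. Survival readings from the two groups were divided (treated over control).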

COc1ccc2[nH]c3c(C)c4ccncc4c(C)c3c2c1
T/C (endpoint: mean survival time, dose: 2.5 mg/kg/injection, schedule: Q01DX009 (ip), vehicle: Klucel (hydroxypropylcellulose) (HPC)): 93 % of control
T/C (endpoint: mean survival time, dose: 3.12 mg/kg/injection, schedule: Q01DX009 (ip), vehicle: citric acid): 113 % of control and 124 % of control
T/C (endpoint: mean survival time, dose: 3.12 mg/kg/injection, schedule: Q01DX009 (ip), vehicle: clinical formulation): 109 % of control and 121 % of control
T/C (endpoint: mean survival time, dose: 3.12 mg/kg/injection, schedule: Q04DX003 (ip), vehicle: citric acid): 106 % of control
T/C (endpoint: mean survival time, dose: 3.12 mg/kg/injection, schedule: Q04DX003 (ip), vehicle: clinical formulation): 104 % of control
T/C (endpoint: mean survival time, dose: 5.0 mg/kg/injection, schedule: Q01DX009 (ip), vehicle: Klucel (hydroxypropylcellulose) (HPC)): 106 % of control
T/C (endpoint: mean survival time, dose: 6.0 mg/kg/injection, schedule: Q01DX Z (ip), vehicle: saline): 112 % of control
T/C (endpoint: mean survival time, dose: 6.25 mg/kg/injection, schedule: Q01DX009 (ip), vehicle: citric acid): 122 % of control
T/C (endpoint: mean survival time, dose: 6.25 mg/kg/injection, schedule: Q04DX003 (ip), vehicle: citric acid): 109 % of control and 112 % of control
T/C (endpoint: mean survival time, dose: 6.25 mg/kg/injection, schedule: Q04DX003 (ip), vehicle: clinical formulation): 106 % of control and 108 % of control
T/C (endpoint: mean survival time, dose: 9.37 mg/kg/injection, schedule: Q01DX001 (ip), vehicle: other): 102 % of control
T/C (endpoint: mean survival time, dose: 9.37 mg/kg/injection, schedule: Q01DX001 (sc), vehicle: other): 98 % of control
T/C (endpoint: mean survival time, dose: 9.37 mg/kg/injection, schedule: Q04DX003 (ip), vehicle: other): 103 % of control
T/C (endpoint: mean survival time, dose: 9.38 mg/kg/injection, schedule: Q04DX003 (ip), vehicle: clinical formulation): 104 % of control
T/C (endpoint: mean survival time, dose: 9.38 mg/kg/injection, schedule: Q04DX003 (ip), vehicle: lactic acid): 121 % of control
T/C (endpoint: mean survival time, dose: 10.0 mg/kg/injection, schedule: Q01DX009 (ip), vehicle: Klucel (hydroxypropylcellulose) (HPC)): 109 % of control
T/C (endpoint: mean survival time, dose: 12.0 mg/kg/injection, schedule: Q01DX001 (ip), vehicle: saline): 106 % of control
T/C (endpoint: mean survival time, dose: 12.0 mg/kg/injection, schedule: Q01DX Z (ip), vehicle: saline): 109 % of control and 123 % of control
T/C (endpoint: mean survival time, dose: 12.0 mg/kg/injection, schedule: Q01DX Z (oral), vehicle: saline): 116 % of control
T/C (endpoint: mean survival time, dose: 12.5 mg/kg/injection, schedule: Q01DX009 (ip), vehicle: citric acid): 150 % of control
T/C (endpoint: mean survival time, dose: 12.5 mg/kg/injection, schedule: Q04DX003 (ip), vehicle: citric acid): 116 % of control
T/C (endpoint: mean survival time, dose: 12.5 mg/kg/injection, schedule: Q04DX003 (ip), vehicle: clinical formulation): 117 % of control and 120 % of control
T/C (endpoint: mean survival time, dose: 18.75 mg/kg/injection, schedule: Q01DX001 (ip), vehicle: other): 108 % of control and 109 % of control
T/C (endpoint: mean survival time, dose: 18.75 mg/kg/injection, schedule: Q01DX001 (sc), vehicle: other): 104 % of control
T/C (endpoint: mean survival time, dose: 18.75 mg/kg/injection, schedule: Q04DX003 (ip), vehicle: other): 118 % of control
T/C (endpoint: mean survival time, dose: 20.0 mg/kg/injection, schedule: Q01DX009 (ip), vehicle: Klucel (hydroxypropylcellulose) (HPC)): 119 % of control
T/C (endpoint: mean survival time, dose: 25.0 mg/kg/injection, schedule: Q01DX001 (ip), vehicle: saline): 104 % of control
T/C (endpoint: mean survival time, dose: 25.0 mg/kg/injection, schedule: Q01DX009 (ip), vehicle: citric acid): 93 % of control
T/C (endpoint: mean survival time, dose: 25.0 mg/kg/injection, schedule: Q01DX009 (ip), vehicle: clinical formulation): 101 % of control
T/C (endpoint: mean survival time, dose: 37.5 mg/kg/injection, schedule: Q01DX001 (ip), vehicle: other): 114 % of control and 120 % of control
T/C (endpoint: mean survival time, dose: 37.5 mg/kg/injection, schedule: Q01DX001 (ip), vehicle: saline): 104 % of control
T/C (endpoint: mean survival time, dose: 37.5 mg/kg/injection, schedule: Q01DX001 (oral), vehicle: other): 118 % of control
T/C (endpoint: mean survival time, dose: 37.5 mg/kg/injection, schedule: Q01DX001 (sc), vehicle: other): 113 % of control
T/C (endpoint: mean survival time, dose: 37.5 mg/kg/injection, schedule: Q01DX001 (sc), vehicle: saline): 104 % of control
T/C (endpoint: mean survival time, dose: 37.5 mg/kg/injection, schedule: Q04DX003 (oral), vehicle: other): 113 % of control
T/C (endpoint: mean survival time, dose: 50.0 mg/kg/injection, schedule: Q01DX001 (ip), vehicle: other): 105 % of control
T/C (endpoint: mean survival time, dose: 50.0 mg/kg/injection, schedule: Q01DX001 (ip), vehicle: saline): 98 % of control
T/C (endpoint: mean survival time, dose: 50.0 mg/kg/injection, schedule: Q04DX003 (ip), vehicle: clinical formulation): 123 % of control
T/C (endpoint: mean survival time, dose: 75.0 mg/kg/injection, schedule: Q01DX001 (ip), vehicle: saline): 111 % of control and 113 % of control and 115 % of control
T/C (endpoint: mean survival time, dose: 75.0 mg/kg/injection, schedule: Q01DX001 (oral), vehicle: other): 124 % of control
T/C (endpoint: mean survival time, dose: 75.0 mg/kg/injection, schedule: Q01DX001 (oral), vehicle: saline): 113 % of control
T/C (endpoint: mean survival time, dose: 75.0 mg/kg/injection, schedule: Q01DX001 (sc), vehicle: other): 112 % of control
T/C (endpoint: mean survival time, dose: 75.0 mg/kg/injection, schedule: Q01DX001 (sc), vehicle: saline): 100 % of control
T/C (endpoint: mean survival time, dose: 100.0 mg/kg/injection, schedule: Q01DX Z (ip), vehicle: carboxymethylcellulose (CMC)): 96 % of control
T/C (endpoint: mean survival time, dose: 100.0 mg/kg/injection, schedule: Q01DX Z (ip), vehicle: saline): 109 % of control
T/C (endpoint: mean survival time, dose: 100.0 mg/kg/injection, schedule: Q04DX003 (ip), vehicle: citric acid): 110 % of control
T/C (endpoint: mean survival time, dose: 100.0 mg/kg/injection, schedule: Q04DX003 (ip), vehicle: clinical formulation): 93 % of control and 103 % of control
T/C (endpoint: mean survival time, dose: 115.0 mg/kg/injection, schedule: Q01DX001 (ip), vehicle: saline): 113 % of control
T/C (endpoint: mean survival time, dose: 115.0 mg/kg/injection, schedule: Q01DX Z (oral), vehicle: saline): 95 % of control
T/C (endpoint: mean survival time, dose: 150.0 mg/kg/injection, schedule: Q01DX001 (ip), vehicle: saline): 118 % of control
T/C (endpoint: mean survival time, dose: 150.0 mg/kg/injection, schedule: Q01DX001 (sc), vehicle: other): 120 % of control
T/C (endpoint: mean survival time, dose: 150.0 mg/kg/injection, schedule: Q01DX001 (sc), vehicle: saline): 107 % of control
T/C (endpoint: mean survival time, dose: 170.0 mg/kg/injection, schedule: Q01DX001 (ip), vehicle: saline): 108 % of control
T/C (endpoint: mean survival time, dose: 170.0 mg/kg/injection, schedule: Q01DX Z (ip), vehicle: saline): 104 % of control
T/C (endpoint: mean survival time, dose: 225.0 mg/kg/injection, schedule: Q01DX001 (ip), vehicle: saline): 115 % of control
T/C (endpoint: mean survival time, dose: 255.0 mg/kg/injection, schedule: Q01DX Z (ip), vehicle: saline): 96 % of control
T/C (endpoint: mean survival time, dose: 255.0 mg/kg/injection, schedule: Q01DX Z (oral), vehicle: saline): 106 % of control
T/C (endpoint: mean survival time, dose: 300.0 mg/kg/injection, schedule: Q01DX001 (ip), vehicle: saline): 122 % of control
T/C (endpoint: mean survival time, dose: 300.0 mg/kg/injection, schedule: Q01DX001 (sc), vehicle: saline): 103 % of control
T/C (endpoint: mean survival time, dose: 600.0 mg/kg/injection, schedule: Q01DX001 (oral), vehicle: other): 92 % of control
T/C (endpoint: mean survival time, dose: 600.0 mg/kg/injection, schedule: Q01DX001 (sc), vehicle: saline): 111 % of control
T/C (endpoint: mean survival time, dose: 1200.0 mg/kg/injection, schedule: Q01DX001 (oral), vehicle: saline): 104 % of control
T/C (endpoint: median survival time, dose: 2.0 mg/kg/injection, schedule: Q03HX008 (oral), vehicle: other): 100 % of control
T/C (endpoint: median survival time, dose: 2.0 mg/kg/injection, schedule: Q03HX008 (sc), vehicle: water): 100 % of control
T/C (endpoint: median survival time, dose: 4.0 mg/kg/injection, schedule: Q01DX009 (ip), vehicle: other): 116 % of control
T/C (endpoint: median survival time, dose: 4.0 mg/kg/injection, schedule: Q01DX009 (oral), vehicle: other): 111 % of control
T/C (endpoint: median survival time, dose: 4.0 mg/kg/injection, schedule: Q01DX009 (sc), vehicle: water): 100 % of control
T/C (endpoint: median survival time, dose: 4.0 mg/kg/injection, schedule: Q03HX008 (oral), vehicle: other): 111 % of control
T/C (endpoint: median survival time, dose: 4.0 mg/kg/injection, schedule: Q03HX008 (sc), vehicle: water): 111 % of control
T/C (endpoint: median survival time, dose: 8.0 mg/kg/injection, schedule: Q01DX009 (oral), vehicle: other): 111 % of control
T/C (endpoint: median survival time, dose: 8.0 mg/kg/injection, schedule: Q01DX009 (sc), vehicle: water): 116 % of control
T/C (endpoint: median survival time, dose: 8.0 mg/kg/injection, schedule: Q03HX008 (oral), vehicle: other): 94 % of control
T/C (endpoint: median survival time, dose: 8.0 mg/kg/injection, schedule: Q03HX008 (sc), vehicle: water): 122 % of control
T/C (endpoint: median survival time, dose: 16.0 mg/kg/injection, schedule: Q01DX001 (oral), vehicle: other): 100 % of control
T/C (endpoint: median survival time, dose: 16.0 mg/kg/injection, schedule: Q01DX001 (sc), vehicle: water): 111 % of control
T/C (endpoint: median survival time, dose: 16.0 mg/kg/injection, schedule: Q01DX009 (ip), vehicle: water): 111 % of control
T/C (endpoint: median survival time, dose: 16.0 mg/kg/injection, schedule: Q01DX009 (oral), vehicle: other): 122 % of control
T/C (endpoint: median survival time, dose: 16.0 mg/kg/injection, schedule: Q03HX008 (oral), vehicle: other): 116 % of control
T/C (endpoint: median survival time, dose: 32.0 mg/kg/injection, schedule: Q01DX001 (oral), vehicle: other): 111 % of control
T/C (endpoint: median survival time, dose: 32.0 mg/kg/injection, schedule: Q01DX009 (ip), vehicle: other): 100 % of control
T/C (endpoint: median survival time, dose: 32.0 mg/kg/injection, schedule: Q01DX009 (ip), vehicle: water): 100 % of control
T/C (endpoint: median survival time, dose: 32.0 mg/kg/injection, schedule: Q01DX009 (oral), vehicle: other): 105 % of control
T/C (endpoint: median survival time, dose: 32.0 mg/kg/injection, schedule: Q03HX008 (sc), vehicle: water): 150 % of control
T/C (endpoint: median survival time, dose: 64.0 mg/kg/injection, schedule: Q01DX001 (oral), vehicle: other): 111 % of control
T/C (endpoint: median survival time, dose: 64.0 mg/kg/injection, schedule: Q01DX001 (sc), vehicle: water): 111 % of control
T/C (endpoint: median survival time, dose: 64.0 mg/kg/injection, schedule: Q01DX009 (sc), vehicle: water): 116 % of control
T/C (endpoint: median survival time, dose: 128.0 mg/kg/injection, schedule: Q01DX001 (oral), vehicle: other): 122 % of control
T/C (endpoint: median survival time, dose: 128.0 mg/kg/injection, schedule: Q01DX009 (oral), vehicle: other): 111 % of control
T/C (endpoint: median survival time, dose: 256.0 mg/kg/injection, schedule: Q01DX001 (sc), vehicle: water): 122 % of control

— PubChem BioAssay AID248 (DTP/NCI, 2004)
